Earlier results, collected in patent publication US20070212386A1, “COATINGS FOR IMPLANTABLE MEDICAL DEVICES” (Sahajanand Medical Technologies Pvt. Ltd., priority 2006, published 2007).

Experiments:
[1] = general statement
[2] = tested on: collagen induced platelet aggregation; conditions: literature refs [2,5]

| solubility in water [1] | SMILES | concentration preventing collagen induced platelet aggregation [2] |
| --- | --- | --- |
| practically insoluble in water | O=c1c(O)c(-c2ccc(O)c(O)c2)oc2cc(O)cc(O)c12 [Quercetin, 2-(3,4-dihydroxyphenyl)-3,5,7-trihydroxy-4H-1-benzopyran-4-one] |  |
| practically insoluble in water | O=c1c(-c2ccc(O)cc2)coc2cc(O)cc(O)c12 [Genistein, 5,7-dihydroxy-3-(4-hydroxyphenyl)-4H-1-benzopyran-4-one] | more than 25 μM |
| greater water solubility than genistein | O=c1c(-c2ccc(O)cc2)coc2cc(O[C@@H]3O[C@H](CO)[C@@H](O)[C@H](O)[C@H]3O)cc(O)c12 [Genistin] |  |
